What was measured:
[1] = biological target: T1, hT1R1/hT1R3 umami receptor (Homo sapiens, UniProt Q7RTX0+Q7RTX1); assay: In vitro hT1R1/hT1R3 umami taste receptor activation assay (FLIPR, dose response); format: cell-based; conditions: read-out: EC50 for activation of a hT1R1/hT1R3 umami receptor expressed in an HEK293 cell line
T1 construct: expressed in transfected cells; host or cells: HEK293 derivative stably expressing Gα15, clone I-17, expression induced with mifepristone
T1 sequence (Q7RTX1 21-841): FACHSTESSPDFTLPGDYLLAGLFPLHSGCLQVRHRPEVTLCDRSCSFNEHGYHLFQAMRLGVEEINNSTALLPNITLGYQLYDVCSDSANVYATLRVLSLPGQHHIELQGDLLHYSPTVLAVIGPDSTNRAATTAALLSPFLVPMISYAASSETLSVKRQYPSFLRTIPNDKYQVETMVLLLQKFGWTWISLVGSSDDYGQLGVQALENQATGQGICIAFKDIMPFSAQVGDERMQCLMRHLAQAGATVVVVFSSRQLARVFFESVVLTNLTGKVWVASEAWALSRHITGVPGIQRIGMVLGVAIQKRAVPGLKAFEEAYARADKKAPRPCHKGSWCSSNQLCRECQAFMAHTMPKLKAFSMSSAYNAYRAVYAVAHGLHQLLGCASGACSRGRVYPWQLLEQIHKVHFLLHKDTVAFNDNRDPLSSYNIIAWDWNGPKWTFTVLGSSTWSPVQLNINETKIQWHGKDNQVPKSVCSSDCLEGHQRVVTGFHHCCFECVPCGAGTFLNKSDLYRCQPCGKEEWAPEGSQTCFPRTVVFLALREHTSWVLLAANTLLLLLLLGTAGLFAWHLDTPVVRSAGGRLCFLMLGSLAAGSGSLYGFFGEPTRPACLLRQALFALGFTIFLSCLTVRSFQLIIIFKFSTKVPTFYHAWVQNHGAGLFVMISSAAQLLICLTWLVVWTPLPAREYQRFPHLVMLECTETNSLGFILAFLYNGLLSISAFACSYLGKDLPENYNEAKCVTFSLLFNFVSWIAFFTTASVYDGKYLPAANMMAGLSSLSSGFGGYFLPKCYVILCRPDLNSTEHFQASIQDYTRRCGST
T1 sequence (Q7RTX0 21-852): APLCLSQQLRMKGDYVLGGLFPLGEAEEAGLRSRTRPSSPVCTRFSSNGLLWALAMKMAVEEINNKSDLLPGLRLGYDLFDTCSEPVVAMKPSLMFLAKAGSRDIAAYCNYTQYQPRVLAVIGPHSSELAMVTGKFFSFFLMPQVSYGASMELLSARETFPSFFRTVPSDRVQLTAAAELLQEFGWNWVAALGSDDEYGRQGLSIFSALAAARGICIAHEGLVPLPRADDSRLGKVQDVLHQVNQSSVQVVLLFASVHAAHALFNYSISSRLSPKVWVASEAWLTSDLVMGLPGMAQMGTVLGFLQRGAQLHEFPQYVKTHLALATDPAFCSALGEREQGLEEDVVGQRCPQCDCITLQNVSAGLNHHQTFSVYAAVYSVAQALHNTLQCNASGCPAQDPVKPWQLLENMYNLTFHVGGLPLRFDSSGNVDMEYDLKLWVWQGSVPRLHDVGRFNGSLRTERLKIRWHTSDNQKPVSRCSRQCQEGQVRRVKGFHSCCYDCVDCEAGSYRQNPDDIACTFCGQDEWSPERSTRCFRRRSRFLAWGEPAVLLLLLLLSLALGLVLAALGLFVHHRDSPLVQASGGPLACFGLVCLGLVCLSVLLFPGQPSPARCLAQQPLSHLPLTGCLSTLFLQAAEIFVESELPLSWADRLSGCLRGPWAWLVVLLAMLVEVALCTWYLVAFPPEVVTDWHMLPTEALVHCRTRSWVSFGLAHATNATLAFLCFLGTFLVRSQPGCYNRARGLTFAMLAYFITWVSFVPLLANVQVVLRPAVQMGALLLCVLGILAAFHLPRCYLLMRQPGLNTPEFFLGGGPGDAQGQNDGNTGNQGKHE

[2] = system: human panelists; assay: Umami/savory flavor experiments using human panelists (trained panel, difference from reference); format: in vivo; conditions: savory taste; for Taste Data: concentration of cpd that with 12 mM MSG is as strong as 12 mM MSG + 100 μM IMP: aqueous solution with 12 mM MSG; for Taste Data: concentration of cpd (alone) as strong as 12 mM MSG: without MSG
Protocol: General Panelist Selection: Basic screening of sensory taste testers: Potential panelists were tested for their abilities to rank and rate intensities of solutions representing the five basic tastes. Panelists ranked and rated intensity of five different concentrations of each of the five following compounds: sucrose (sweet), sodium chloride (salty), citric acid (sour), caffeine (bitter), and monosodium glutamate (savory). In order to be selected for participation in testing, panelists needed to correctly rank and rate samples for intensity, with a reasonable number of errors. […]
Trained Panelist Selection: A trained expert panel was used to further evaluate compounds that had been tested with the preliminary taste test.
Panelists for the trained panel were selected from the larger group of qualifying taste panelists. Panelists were further trained on savory taste by ranking and rating experiments using MSG and IMP combinations. Panelists completed a series of ranking, rating, and difference from reference tests with savory solutions. In ranking and rating experiments, panelists evaluated easy MSG concentrations (0, 6, 18, 36 mM) and more difficult MSG concentrations (3, 6, 12, 18 mM MSG) in water.
Compound testing with Trained Panel: Compounds tested by the trained panel were evaluated in difference from reference experiments. […] Test samples were solutions with varying amounts of MSG, IMP, and the compound. Typically, each session compares the reference sample to numerous test samples. […] Compounds were tested against the reference in samples with and without 12 mM MSG. All samples were presented in 10 ml volumes at room temperature. Two sessions were completed for each compound tested to evaluate panel reproducibility.

[3] = biological target: T2, hT1R2/hT1R3 sweet receptor (Homo sapiens, UniProt Q7RTX0+Q8TE23); assay: In vitro hT1R2/hT1R3 sweet taste receptor activation assay (FLIPR, dose response); format: cell-based; conditions: read-out: EC50 for activation of a hT1R2/hT1R3 sweet receptor expressed in an HEK293 cell line
T2 construct: expressed in transfected cells; host or cells: HEK293 derivative stably expressing Gα15, clone S-9
T2 sequence (Q8TE23 20-839): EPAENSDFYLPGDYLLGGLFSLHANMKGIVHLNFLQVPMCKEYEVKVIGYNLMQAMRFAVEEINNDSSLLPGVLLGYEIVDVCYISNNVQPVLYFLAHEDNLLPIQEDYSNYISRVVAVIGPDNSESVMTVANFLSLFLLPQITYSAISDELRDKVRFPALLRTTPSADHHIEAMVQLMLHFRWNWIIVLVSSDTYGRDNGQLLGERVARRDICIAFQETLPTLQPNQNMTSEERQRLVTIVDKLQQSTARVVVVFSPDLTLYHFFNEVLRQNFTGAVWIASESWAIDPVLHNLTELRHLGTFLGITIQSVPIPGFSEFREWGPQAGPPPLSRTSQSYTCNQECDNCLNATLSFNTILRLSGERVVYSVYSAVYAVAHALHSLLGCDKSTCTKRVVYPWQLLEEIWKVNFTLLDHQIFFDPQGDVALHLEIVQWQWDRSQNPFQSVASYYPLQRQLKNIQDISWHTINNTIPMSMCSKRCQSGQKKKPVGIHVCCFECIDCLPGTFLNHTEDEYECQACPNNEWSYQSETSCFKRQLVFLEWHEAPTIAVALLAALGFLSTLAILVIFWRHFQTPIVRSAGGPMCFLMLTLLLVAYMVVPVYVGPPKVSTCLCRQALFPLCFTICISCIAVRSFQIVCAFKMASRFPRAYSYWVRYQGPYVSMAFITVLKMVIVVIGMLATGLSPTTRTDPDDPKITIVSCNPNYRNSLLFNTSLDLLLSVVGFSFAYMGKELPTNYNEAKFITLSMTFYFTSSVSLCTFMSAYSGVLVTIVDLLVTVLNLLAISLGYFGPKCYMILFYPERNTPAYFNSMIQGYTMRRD
T2 sequence (Q7RTX0 21-852): T1 sequence (Q7RTX0 21-852)
Outline: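 Dose-response at 10 concentrations (60 nM–30 µM, duplicates) measured as Fluo-3AM calcium fluorescence on FLIPR in hT1R2/hT1R3 S-9 cells, in D-PBS at room temperature. Responses scaled to 400 mM D-fructose. EC50s from regression with all curve parameters floating.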

Row | Structure (SMILES) | EC50 [1] | melting point | EC50 [3] | Taste Data: concentration of cpd that with 12 mM MSG is as strong as 12 mM MSG + 100 μM IMP [2] | Taste Data: concentration of cpd (alone) as strong as 12 mM MSG [2]
1 | CCCC(CCC)NC(=O)c1ccc2c(c1)OCO2 [Example 1, N-(heptan-4-yl)benzo[d][1,3]dioxole-5-carboxamide] | 0.2 µM |  |  | 12 mM MSG + 3 μM cpd as strong as | 
2 | COC(=O)[C@@H](CC(C)C)NC(=O)c1ccc2c(c1)OCO2 [Example 6, (R)-methyl 2-(benzo[d][1,3]dioxole-6-carboxamido)-4-methylpentanoate] | 0.34 µM |  |  | 12 mM MSG + 10 μM cpd as strong as | 
3 | COC[C@@H](CC(C)C)NC(=O)c1ccc(C)c(C)c1 [Example 71, (R)-N-(1-methoxy-4-methylpentan-2-yl)-3,4-dimethylbenzamide] | 0.2 µM |  |  | 12 mM MSG + 3 μM cpd as strong as | 
4 | COC(=O)[C@@H](CC(C)C)NC(=O)c1cc(C)c(C)o1 [Example 98, (R)-methyl 2-(2,3-dimethylfuran-5-carboxamido)-4-methylpentanoate] | 0.59 µM |  |  | 12 mM MSG + 10 μM cpd as strong as | 
5 | COC[C@@H](CC(C)C)NC(=O)c1ccc(OC)c(C)c1 [Example 104, 4-Methoxy-N-(1-methoxymethyl-3-methyl-butyl)-3-methyl-benzamide] | 0.24 µM |  |  | 12 mM MSG + 3 μM cpd as strong as | 
6 | COc1ccc(C(=O)N[C@H]2CCc3ccccc32)cc1C [Example 121-1, (S)-N-(2,3-Dihydro-1H-inden-1-yl)-4-methoxy-3-methylbenzamide] | 0.08 µM |  |  | 12 mM MSG + 1 μM cpd as strong as | 1 μM cpd as strong as 12 mM MSG
7 | COc1ccc(CNC(=O)C(=O)NCCc2ccccn2)c(OC)c1 [Example 123, N-(2,4-Dimethoxy-benzyl)-N′-(2-pyridin-2-yl-ethyl)-oxalamide] | 0.09 µM |  |  | 12 mM MSG + 1 μM cpd as strong as | 1 μM cpd as strong as 12 mM MSG
8 | COc1cc(C)ccc1CNC(=O)C(=O)NCCc1ccccn1 [Example 132, N-(2-methoxy-4-methylbenzyl)-N′-(2-(pyridin-2-yl)ethyl)oxalamide] | 0.04 µM | 128 to 131 °C |  | 12 mM MSG + 1 μM cpd as strong as | 1 μM cpd as strong as 12 mM MSG

Second part, led by results:

Row | EC50 [1] | melting point | EC50 [3] | Structure (SMILES) | Taste Data: concentration of cpd that with 12 mM MSG is as strong as 12 mM MSG + 100 μM IMP [2] | Taste Data: concentration of cpd (alone) as strong as 12 mM MSG [2]
9 | 0.03 µM | 133.5 to 134 °C |  | COc1cc(C)ccc1CNC(=O)C(=O)NCCc1ccc(C)cn1 [Example 157, N^1-(2-methoxy-4-methylbenzyl)-N^2-(2-(5-methylpyridin-2-yl)ethyl)oxalamide] | 12 mM MSG + 0.3 μM cpd as strong | 0.3 μM cpd as strong as 12 mM MSG
10 |  | 202 to 204 °C | 0.39 µM | Cc1c(F)c(F)c(C(=O)NC2CCCCC2C)c(F)c1F (centres unmarked) [Example 162, 2,3,5,6-tetrafluoro-4-methyl-N-(2-methylcyclohexyl)benzamide] |  | 
11 |  | 164 to 165 °C | 1.85 µM | Cc1c(F)c(F)c(C(=O)NC2CCCCCC2)c(F)c1F [Example 164, N-cycloheptyl-2,3,5,6-tetrafluoro-4-methylbenzamide] |  | 
12 |  | 184 to 187 °C | 0.81 µM | Cc1c(F)c(F)c(C(=O)NC(C(C)C)C(C)C)c(F)c1F [Example 165, N-(2,4-dimethylpentan-3-yl)-2,3,5,6-tetrafluoro-4-methylbenzamide] |  | 
13 |  | 57 to 58 °C | 0.76 µM | Cc1cc(C)c2c(c1)C(NC(=O)c1conc1C)CCC2 (centres unmarked) [Example 166, N-(5,7-dimethyl-1,2,3,4-tetrahydronaphthalen-1-yl)-3-methylisoxazole-4-carboxamide] |  | 
14 |  | 175 to 176 °C | 0.21 µM | COc1cccc2c1CCCC2NC(=O)c1cccc(Cl)c1O (centres unmarked) [Example 167, 3-chloro-2-hydroxy-N-(5-methoxy-1,2,3,4-tetrahydronaphthalen-1-yl) benzamide] |  | 
15 |  | 165 to 166 °C | 1.05 µM | O=C(Nc1ccc2c(c1)OCO2)N1Cc2ccccc2C1 [Example 174, N-(3,4-methylenedioxyphenyl)isoindoline-2-carboxamide] |  | 
16 |  | 111 to 113 °C | 0.85 µM | COc1ccc2c(c1)CCC[C@H]2NC(=O)c1cccc(Cl)c1O [Example 183, (R)-3-Chloro-2-hydroxy-N-(6-methoxy-1,2,3,4-tetrahydronaphthalen-1-yl)benzamide] |  | 

Reference: patent publication US20060045953A1 (priority 2004, published 2006)
